Here are results for one substance from patent US9034825B2, “Treatment of myocardial injury with humanin analogs” (Albert Einstein College of Medicine of Yeshiva University, priority 2007, dated 2015).

“Also recorded” adds a separate entry of the source.

The test system of the series is Sprague-Dawley rats. In words: ICV infusion of IGF-1, IGFBP-3 or NLS mutant with basal and hyperinsulinemic clamp. Type of series: in vivo, rat. From the text:
Young (3 mo old, n=6 in each group), male Sprague-Dawley rats (Charles River Laboratories, Wilmington, Mass.) were used for this study. Rats were housed in individual cages and were subjected to a standard light (6:00 AM to 6:00 PM)—dark (6:00 PM to 6:00 AM) cycle. All rats were fed ad libitum using regular rat chow that consisted of 64% carbohydrate, 30% protein, and 6% fat with a physiological fuel value of 3.3-kcal/g chow. In the rats that received ICV infusions, 2 to 4 weeks before the in vivo study, the rats were anesthetized by inhalation of isoflurane and a cannula was placed ICV in the third ventricle for infusions of IGF-1, IGFBP-3 or IGFBP-3 mutant or artificial cerebrospinal fluid (aCSF), as previously described (Muzumdar et al., 2003) (FIG. 1). Briefly, a 26-gauge stainless steel guide cannula (Plastics One, Roanoke, Va.) was chronically implanted into the third ventricles using the following coordinates from bregma: anterior-posterior; +0.2 mm dorsal-ventral; −9.0 mm medial-lateral; 0.0 directly on the mid-sagittal suture, followed by a 28-gauge dummy cannula, inserted to prevent clogging of the guide cannula. The implant was secured to the skull with Caulk Grip dental cement, and the skin was closed over the implant using wound clips. The recovery of rats from the surgical stress was monitored with daily weight, food intake, and movement.
Upon recovery of body weight, usually a week, indwelling catheters were placed in the right internal jugular vein and in the left carotid artery (Muzumdar et al., 2003). The venous catheter was extended to the level of the right atrium, and the arterial catheter was advanced to the level of the aortic arch. Recovery was continued until body weight was within 3% of the pre-operative weight (˜4-6 days). In the rats that received peripheral IGFBP-3, only the vascular catheters were placed.
Studies were performed in unrestrained rats using the insulin clamp technique, in combination with high performance liquid chromatography-purified [3-^3H]glucose and [U-^14C]lactate infusions, as described previously (Liu et al., 1998). Food was removed for ˜5 h before the in vivo protocol. All studies lasted 360 min and included a 120-min equilibration period, a 120-min basal period for assessment of the basal glucose turnover, and a 120-min hyperinsulinemic clamp period. All rats received ICV infusions (bolus followed by continuous ICV infusions of IGF-1, IGFBP-3, IGFBP-3 mutant or aCSF, depending on the group) over the entire 6 hours of the study. At the beginning of the basal period and 120 min before starting the glucose/insulin infusions, a primed-continuous infusion of high performance liquid chromatography-purified [3-^3H]glucose (NEN Life Science Products, Boston, Mass.; 20 μCi of bolus, 0.2 μCi/min) was initiated and maintained throughout the remaining 4 h of the study. In the final 2 hours of the study, the rats were subjected to hyperinsulinemic clamp. The protocol followed during the insulin clamp study was similar to that previously described (Liu et al., 1998). Briefly, a primed-continuous infusion of regular insulin (3 milliunits/kg·min) was administered, and a variable infusion of a 25% glucose solution was started and periodically adjusted to clamp the plasma glucose concentration at 7-8 mM. To prevent endogenous insulin secretion and in order to control for possible effects of ICV infusions on the endocrine pancreas, somatostatin (1.5 μg/kg·min) was also infused in all the groups. [U-^14C]Lactate (5 μCi of bolus/0.25 μCi/min) was infused during the last 10 min of the study.
A bolus of hIGF-1 (0.3 mcg, a gift from Tercica, South San Francisco) was followed by a continuous infusion over 6 hours (total dose of 1 mcg, 0.06 μg/kg/hr).
A bolus of non glycosylated hIGFBP-3 (1.25 μg, generously provided by Celtrix, Mountain View Calif.) was followed by a continuous infusion over 6 hours (total dose of 5.25 mcg, 0.26 μg/kg/hr). […]

[1] abbreviates: ICV IGFBP-3, insulin clamp 3 mU/kg/min.
[2] abbreviates: ICV IGFBP-3 or NLS mutant over 6 h, basal period.
Setting [3] is: ICV IGFBP-3 or NLS mutant over 6 h, hyperinsulinemic clamp.
Setting [4] is: ICV infusion, hyperinsulinemic clamp.

“IGFBP-3: non glycosylated hIGFBP-3 (IGF binding protein-3), provided by Celtrix”: under setting [1], the “decrease in peripheral glucose uptake” value is approximately 30% and the “increase in hepatic glucose production compared to controls” value is recorded as 45%. Moreover, under setting [2], the “Glycogen synthesis, Basal” value is 4.62 ± 0.69; the “Glycolysis, Basal” value amounted to 9.33 ± 1.27 mg/kg/min; the “HGP, Basal” value turned out to be 13.95 ± 0.99 mg/kg/min. Further, under setting [3], the “Glycogen synthesis, Clamp” value was 4.46 ± 0.68; the “Glycolysis, Clamp” value was found to be 9.95 ± 1.05 mg/kg/min; the “HGP, Clamp” value turned out to be 7.08 ± 0.59 mg/kg/min; the “Rd, Clamp” value was found to be 14.01 ± 0.82 mg/kg/min. Moreover, the “GIR, Clamp” value (ICV IGFBP-3 or NLS mutant over 6 h, hyperinsulinemic clamp 3 mU/kg/min) worked out at 6.95 ± 1.11 mg/kg/min. Moreover, where the note is “ICV IGFBP-3 or NLS mutant over 6 h, hyperinsulinemic clamp, last 60 min”, the FFA was found to be 0.72 ± 0.06 mEq/l. Further, the h-IGFBP-3 (ICV IGFBP-3 or NLS mutant over 6 h, peripheral plasma) was determined as 0 ng/mL. Also, under setting [4], the gluconeogenesis came out at 0.37 ± 0.1 mg/kg/min, the “glycogenolysis / hepatic glucose fluxes compared to controls” value was “significant increase” and the “insulin induced suppression of FFA compared to controls” value is recorded as “significantly reduced”. In addition, the “whole body glucose disposal / peripheral glucose uptake (Rd) compared to controls” value (ICV infusion, hyperinsulinemic clamp, final 60 min) is on record as “significantly decreased”. Besides, under “after ICV infusion”, the “infused human peptide in the rat periphery” value is given as “No hIGFBP-3 was detected; also recorded: No human IGF-1, hIGFBP-3 or NLS-IGFBP-3 was identified”.
